Results published in patent US9815850B2, “Compounds, compositions and methods” (Denali Therapeutics Inc., priority 2016, dated 2017).
Where two headings read alike, the source gives them in different places.

Legend:
[1] = tested on: human cryopreserved hepatocytes; test: Metabolic stability (hepatocytes); type: in vitro ADME; settings: well-stirred model
From the text: Hepatic clearance is expressed as mL/min/kg.

TNF/zVAD [2] = settings: dose of 30 mg/kg, Table 2 of WO 2014/125444; cited from earlier work
[3] = tested on: human cryopreserved hepatocytes; test: Metabolic stability (hepatocytes); type: in vitro ADME; settings: from human CLhep
[4] = biological target: P-gp (P-glycoprotein, MDR1) (Homo sapiens (Human), UniProt P08183); test: MDCKII-MDR1 permeability, efflux ratio; type: in vitro ADME; settings: dog, MDCK-MDR1, pH 7.4, MDCKII-MDR1 cells, read-out: ER MDR1
Description: The blood brain barrier (BBB) separates circulating blood from the extracellular fluid of the central nervous system (CNS). The passive membrane permeability (Papp) and the P-gp (P-glycoprotein) substrate efflux potential were determined using the MDCKII-MDR1 cell line as an in vitro model of the effective permeability of a compound through the BBB. A bidirectional assay (Apical to Basolateral (A→B) and Basolateral to Apical (B→A)), in the absence and in the presence of GF120918 (a P-gp inhibitor) was conducted using pre-plated MDCKII-MDR1 cells (Corning HTS Transwell-96) obtained from SOLVO Biotechnology. The assay was run at 3 μM for 90 min (minutes) in triplicate using a HBSS+12.5 mM HEPES pH 7.4 transport buffer. Following incubation of samples from donor and receiver, wells were removed and measured by LC-MS/MS. Samples were extracted by protein precipitation with acetonitrile containing an appropriate internal standard (IS) having a known mass and molecular weight. The precipitate was centrifuged for 10 min at 3000 rpm (revolutions per minute). The supernatants were then collected, diluted if necessary, and injected on to the LC-MS/MS system. […] Papp (apparent permeability expressed in nm/sec [nanometer/second]) values were calculated according to the following equation: […]
Where dQ/dt is the permeability rate, C0 is the initial concentration in the donor solution (expressed as IS ratio), A and B are the surface areas of the filter (the surface area of the cell monolayer).
Monolayer efflux ratios (ER) were derived using the following equation: […]

[5] = male, Beagle, in vivo
[6] = male, cynomolgus monkey, in vivo
[7] = male, Sprague-Dawley Crl:CD(SD), in vivo
TNF/zVAD [8] = test: TNF-driven systemic inflammatory response syndrome model; type: in vivo; settings: 5 mg/kg orally 15 minutes before intravenous TNF/zVAD, mice
From the text: The in vivo efficacy of compounds can be determined in mice using a TNF-driven systemic inflammatory response syndrome model as described by Duprez et. al. (2011, Immunity 35(6), 908-918) and Berger et. al. (2015, Cell Death Disc. 1, 15009). In this model system TNF/zVAD (tumor necrosis factor/Z-Val-Ala-DL-Asp-fluoromethylketone, a caspase inhibitor) treatment results in temperature loss and the production of several inflammatory cytokines. The ability of a test compound to inhibit these inflammatory effects can be measured in this model by dosing mice with test compound 15 minutes before administration of TNF/zVAD and measuring the inflammatory response. The dose required to inhibit the inflammatory response is a measure of the compounds efficacy at that dose. Using this model, Compound 42 was orally pre-dosed at 5 mg/kg 15 minutes before intravenous administration of TNF/zVAD and temperature loss in the mice was measured by an implanted temperature chip. […] The decrease in dosing has a number of important potential advantages, including requiring less frequent administration to a patient, increased patient compliance, and improved safety profile such as lower toxicities while achieving similar efficacy.

GST-hRIPK1 (8-327) [9] = biological target: T1, GST-hRIPK1 (8-327) (Homo sapiens (Human), UniProt Q13546); test: Fluorescent Polarization Binding (FP Binding) assay
Description: Fluorescent Polarization Binding (FP Binding) assay (Berger S. B. et al. […] Maki J. L. et al. […] Test Compounds were serially diluted in DMSO at 100 fold final concentrations in the assay (1% DMSO final). […] For negative control the enzyme addition was replaced by assay buffer only. After addition of 5 μL of fluorescent labeled ligand at twice the final concentrations in assay buffer, the plate was incubated at RT for 30 min.

[10] = tested on: FADD-deficient Jurkat cells; test: Cellular necroptosis assay (human TNFα-induced); type: cell-based; settings: Homo sapiens, 48 h, read-out: Cell IC50
Description: Ten concentrations of the test compounds were assessed in duplicate in two different test occasions. […] The day of the experiment cells were diluted to a density of […] (5,000 cells/well) with culture medium and added (40 μL) into the 384-well plate containing 0.2 μL/well of test compounds and reference compounds (CRCs) (200×). Cell plates were then incubated at 37° C.-5% CO2. After 30 min, necroptotic cell death was induced with human TNFα (10 ng/mL) and cell viability was evaluated 48 h later by measuring cellular ATP levels using CellTiter-Glo® kit (Promega). Luminescence was read by using Victor V (Perkin Elmer) multilabel plate reader.

GST-hRIPK1 (8-327) [11] = biological target: T1, GST-hRIPK1 (8-327); test: ADP-Glo kinase assay; type: biochemical; settings: 50 μM ATP
Description: GST-hRIPK1 (8-327) enzyme was generated by Proteros GmbH by Baculovirus expression system.
Test compounds were diluted in DMSO and 0.1 μL of solution was dispensed to each well of a 384-well white solid microplate. The assay buffer was 50 mM HEPES pH 7.5, 50 mM NaCl, 30 mM MgCl2. The buffer was supplemented with 0.02% CHAPS, 0.01% of Pluronic F127, 0.1 mg/mL BSA and 1 mM DTT. MnCl2, 5 mM, was included in the assay buffer on the day of the experiment. The enzymatic reaction comprised 1.5 μg/mL GST-hRIPK1 (8-327) and 50 μM ATP for receptor interacting protein kinase 1 […]. 5 μL of enzyme and 5 μL of ATP were added to the plate at twice the final assay concentration and incubated at room temperature for 3 hours. Following this reaction, 10 μL of ADP-Glo reagent (Promega) was added to each well and incubated for 40 min at room temperature. This stops the kinase reaction and depletes any remaining ATP. […] The luminescence is then measured with the Envision (PerkinElmer) plate reader. Test compound inhibition was expressed as percent inhibition of internal assay controls. For concentration response curves, normalized data is fit and IC50 determined using XL-fit (IDBS) for Excel. […]
Test compound inhibition was expressed as percent inhibition of internal assay controls. For concentration response curves, normalized data is fit and IC50 determined using XL-fit (IDBS) for Excel. […]

[12] = 10 nM GST-hRIPK1 (8-327), 5 nM fluorescent labeled ligand, read-out: FP IC50
[13] = human TNFα 10 ng/mL, viability after 48 h

Sequence of P-gp (P-glycoprotein, MDR1) (P08183 whole entry): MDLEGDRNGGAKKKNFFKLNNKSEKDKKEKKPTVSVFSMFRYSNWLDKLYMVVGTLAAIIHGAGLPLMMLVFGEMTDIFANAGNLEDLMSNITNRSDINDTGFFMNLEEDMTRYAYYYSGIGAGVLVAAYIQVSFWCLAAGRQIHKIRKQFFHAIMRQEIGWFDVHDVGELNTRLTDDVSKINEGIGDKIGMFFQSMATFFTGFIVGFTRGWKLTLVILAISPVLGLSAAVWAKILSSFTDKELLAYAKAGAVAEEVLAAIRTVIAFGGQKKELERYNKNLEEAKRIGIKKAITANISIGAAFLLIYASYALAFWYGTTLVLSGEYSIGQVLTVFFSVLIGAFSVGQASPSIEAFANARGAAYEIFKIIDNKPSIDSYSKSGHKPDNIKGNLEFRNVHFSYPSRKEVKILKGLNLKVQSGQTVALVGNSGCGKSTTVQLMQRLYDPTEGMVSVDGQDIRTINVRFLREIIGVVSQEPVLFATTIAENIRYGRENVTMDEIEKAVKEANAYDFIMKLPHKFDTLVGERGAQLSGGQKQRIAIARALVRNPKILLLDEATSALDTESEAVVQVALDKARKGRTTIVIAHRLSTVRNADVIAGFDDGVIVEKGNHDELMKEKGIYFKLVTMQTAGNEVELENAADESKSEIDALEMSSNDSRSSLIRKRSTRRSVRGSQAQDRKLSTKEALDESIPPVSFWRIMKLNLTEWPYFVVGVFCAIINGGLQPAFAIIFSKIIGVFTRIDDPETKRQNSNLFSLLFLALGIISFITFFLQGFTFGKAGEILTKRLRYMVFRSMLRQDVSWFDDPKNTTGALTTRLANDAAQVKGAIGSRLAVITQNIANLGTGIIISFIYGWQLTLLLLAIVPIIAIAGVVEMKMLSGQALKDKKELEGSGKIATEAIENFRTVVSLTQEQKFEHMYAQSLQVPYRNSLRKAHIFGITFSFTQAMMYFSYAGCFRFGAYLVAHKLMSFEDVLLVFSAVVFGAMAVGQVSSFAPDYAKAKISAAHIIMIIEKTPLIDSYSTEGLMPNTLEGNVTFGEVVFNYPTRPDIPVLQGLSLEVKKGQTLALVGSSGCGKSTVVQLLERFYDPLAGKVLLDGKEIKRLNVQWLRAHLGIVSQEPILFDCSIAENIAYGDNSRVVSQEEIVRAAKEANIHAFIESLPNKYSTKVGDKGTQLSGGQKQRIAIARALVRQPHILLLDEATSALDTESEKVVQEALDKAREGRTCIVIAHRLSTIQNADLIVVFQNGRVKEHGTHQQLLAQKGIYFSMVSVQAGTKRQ
T1 sequence (Q13546 8-327): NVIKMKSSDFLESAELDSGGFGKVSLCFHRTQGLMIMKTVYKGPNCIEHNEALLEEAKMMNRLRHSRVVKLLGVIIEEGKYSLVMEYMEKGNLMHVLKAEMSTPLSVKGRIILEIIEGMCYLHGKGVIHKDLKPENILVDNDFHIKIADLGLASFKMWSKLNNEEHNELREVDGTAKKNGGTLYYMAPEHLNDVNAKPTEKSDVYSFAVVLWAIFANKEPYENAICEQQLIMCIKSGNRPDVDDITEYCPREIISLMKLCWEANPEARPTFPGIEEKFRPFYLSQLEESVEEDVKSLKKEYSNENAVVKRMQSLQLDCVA

Row | SMILES | Human hepatocyte CLhep Avg [1] [mL/min/kg] | efflux ratio at 90 min, 3 μM [4] | Cyno unbound CL [6] [mL/min/kg] | Rat unbound CL [7] [mL/min/kg] | IC50 (GST-hRIPK1 (8-327) [9]; [12]) [nM] | further results
1 | CN1C(=O)[C@@H](NC(=O)c2nnc(Cc3ccccc3)o2)COc2ccccc21 [B, reference compound] | 14 | 1 |  |  |  | 
2 | CN1C(=O)[C@@H](NC(=O)c2nnc(Cc3ccccc3)[nH]2)COc2cccnc21 [Example 42, (S)-5-benzyl-N-(5-methyl-4-oxo-2,3,4,5-tetrahydropyrido[3,2-b][1,4]oxazepin-3-yl)-4H-1,2,4-triazole-3-carboxamide] | 0.8 | 19 | 42 | 22 |  | inhibition of temperature loss (TNF/zVAD [8]): 96%; clearance as % of liver blood flow [3]: less than 4%; IC50 (GST-hRIPK1 (8-327) [9]): 0.1 to 1000 nM; IC50 [10]: 0.1 to 1000 nM; Dog unbound CL [5]: 64 mL/min/kg
3 | O=C(N[C@H]1COC[C@H]2CCCN2C1=O)c1nnc(Cc2ccccc2)[nH]1 [Example 65, N-[(4S,9aR)-5-oxo-octahydropyrrolo[2,1-c][1,4]oxazepin-4-yl]-5-benzyl-4H-1,2,4-triazole-3-carboxamide] |  |  |  |  |  | IC50 (GST-hRIPK1 (8-327) [11]): > 10000 nM
4 | O=C(N[C@@H]1C(=O)Nc2c(F)cc(F)cc2[C@@H]2C[C@H]12)c1nnc(Cc2ccccc2)[nH]1 [Example 83A, 5-benzyl-N-((1aS,2S,8bR)-5,7-difluoro-3-oxo-1,1a,2,3,4,8b-hexahydrobenzo[b]cyclopropa[d]azepin-2-yl)-4H-1,2,4-triazole-3-carboxamide] | 1.0 | 29 | 82 | 116 | 0.1 to 1000 | 
5 | C[C@H]1Oc2cccnc2N(C)C(=O)[C@H]1NC(=O)c1nnc(Cc2ccccc2)o1 [Example 134, 5-Benzyl-N-((2R,3S)-2,5-dimethyl-4-oxo-2,3,4,5-tetrahydropyrido[3,2-b][1,4]oxazepin-3-yl)-1,3,4-oxadiazole-2-carboxamide] |  | 1.1 | 140 | 100 |  | IC50 [10, 13]: 3 nM

The next lines start with results.

Row | Human hepatocyte CLhep Avg [1] [mL/min/kg] | efflux ratio at 90 min, 3 μM [4] | Cyno unbound CL [6] [mL/min/kg] | Rat unbound CL [7] [mL/min/kg] | IC50 (GST-hRIPK1 (8-327) [9]; [12]) [nM] | SMILES | further results
6 | 6.8 | 6.4 | 117 | 77 |  | CN1C(=O)[C@@H](NC(=O)c2nnc(Cc3ccccc3)[nH]2)COc2ccccc21 [A, reference compound] | inhibition of temperature loss (TNF/zVAD [2]): 93%; clearance as % of liver blood flow [3]: approximately 32%; Dog unbound CL [5]: 240 mL/min/kg
7 | 19 | 0.9 |  |  |  | CN1C(=O)[C@@H](NC(=O)c2cc(Cc3ccccc3)on2)COc2ccccc21 [C, reference compound] | 
8 | 6.3 | 1.6 | 116 | 113 | 0.1 to 1000 | CN1C(=O)[C@@H](NC(=O)c2nnc(C3(c4ccccc4)CC3)o2)COc2cccnc21 [Example 66, (S)—N-(5-methyl-4-oxo-2,3,4,5-tetrahydropyrido[3,2-b][1,4]oxazepin-3-yl)-5-(1-phenylcyclopropyl)-1,3,4-oxadiazole-2-carboxamide] | Dog unbound CL [5]: 36 mL/min/kg
9 | 9.1 | 24 | 93 | 91 | 0.1 to 1000 | CN1C(=O)[C@@H](NC(=O)c2nnc(Cc3ccccc3)[nH]2)[C@H]2C[C@H]2c2cccnc21 [Example 75A, 5-benzyl-N-((1aS,2S,8bR)-4-methyl-3-oxo-1,1a,2,3,4,8b-hexahydrocyclopropa[d]pyrido[2,3-b]azepin-2-yl)-4H-1,2,4-triazole-3-carboxamide] | 
10 | 19 | 0.6 |  | 595 | 0.1 to 1000 | CN1C(=O)[C@@H](NC(=O)c2cc(C3(c4ccccc4)CC3)on2)COc2cccnc21 [Example 77, (S)—N-(5-methyl-4-oxo-2,3,4,5-tetrahydropyrido[3,2-b][1,4]oxazepin-3-yl)-5-(1-phenylcyclopropyl)isoxazole-3-carboxamide] | 
11 |  | 14 | 40 | 44 |  | C[C@H]1Oc2cccnc2N(C)C(=O)[C@H]1NC(=O)c1nnc(Cc2ccccc2)[nH]1 [Example 94, 5-benzyl-N-((2R,3S)-2,5-dimethyl-4-oxo-2,3,4,5-tetrahydropyrido[3,2-b][1,4]oxazepin-3-yl)-4H-1,2,4-triazole-3-carboxamide] | IC50 [10, 13]: 6 nM
12 |  | 1 | 39 | 61 |  | CN1C(=O)[C@@H](NC(=O)c2nnc(Cc3ccccc3)o2)COc2cccnc21 [Example 146, (S)-5-benzyl-N-(5-methyl-4-oxo-2,3,4,5-tetrahydropyrido[3,2-b][1,4]oxazepin-3-yl)-1,3,4-oxadiazole-2-carboxamide] | IC50 [10, 13]: 0.7 nM
